Assay results reported in paper PMC4169440, “Sequence Analysis and Molecular Characterization of Clonorchis sinensis Hexokinase, an Unusual Trimeric 50-kDa Glucose-6-Phosphate-Sensitive Allosteric Enzyme” (PLoS ONE, 2014).

How the values were obtained:
[1] = target: T1, rCsHK (recombinant Clonorchis sinensis hexokinase, CsHK) (Clonorchis sinensis, UniProt G7YJ23); test: G6PD-coupled NADPH assay at […] nm; format: biochemical; settings: read-out: relative enzymatic activity at 4 mM
T1 construct: gene CLF_109217; homotrimer about 164 kDa
T1 sequence (G7YJ23 1-449): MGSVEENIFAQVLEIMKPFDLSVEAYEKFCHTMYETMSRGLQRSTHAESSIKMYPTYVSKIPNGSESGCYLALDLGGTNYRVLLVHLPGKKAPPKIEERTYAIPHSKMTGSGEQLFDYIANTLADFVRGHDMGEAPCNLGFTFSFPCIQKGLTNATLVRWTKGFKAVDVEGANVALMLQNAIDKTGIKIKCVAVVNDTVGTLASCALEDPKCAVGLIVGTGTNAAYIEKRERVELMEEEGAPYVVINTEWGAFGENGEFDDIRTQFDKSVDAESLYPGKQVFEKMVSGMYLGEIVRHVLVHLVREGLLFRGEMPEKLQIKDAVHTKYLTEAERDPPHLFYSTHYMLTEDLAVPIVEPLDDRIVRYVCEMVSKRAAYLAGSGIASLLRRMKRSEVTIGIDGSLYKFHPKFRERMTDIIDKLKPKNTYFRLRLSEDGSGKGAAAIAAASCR

[2] = target: T1, rCsHK (recombinant Clonorchis sinensis hexokinase, CsHK); test: G6PD-coupled NADPH assay at […] nm; format: biochemical; settings: 3 mM glucose, with respect to ATP
[3] = target: T1, rCsHK (recombinant Clonorchis sinensis hexokinase, CsHK); test: coupled pyruvate kinase / lactate dehydrogenase ADP assay at […] nm; format: biochemical; settings: 0-4 mM G6P; with respect to ATP or glucose; allosteric inhibitor, dose-independent; also product
[4] = substrate: Nc1ncnc2c1ncn2[C@@H]1O[C@H](COP(=O)(O)OP(=O)(O)OP(=O)(O)O)[C@@H](O)[C@H]1O; test: purified protein; format: biochemical, Clonorchis sinensis; settings: 3 mM glucose, 15 mM MgCl2, 100 mM Tris-Cl pH 8.5, 37 °C, sigmoidal, Mg-ATP true substrate

O=C(C1CCCCC1)N1CC(=O)N2CCc3ccccc3C2C1 (centres unmarked) [praziquantel]
activity at 4000 µM [1]: 45%

O=P(O)(O)OP(=O)(O)O [inorganic pyrophosphate]
G6PD-coupled NADPH assay at 340 nm ([2]; 0-3 mM PPi, allosteric activator, not a substrate): Different concentrations of PPi displayed a net allosteric activation of rCsHK with respect to ATP

O=P(O)(O)OC[C@H]1OC(O)[C@H](O)[C@@H](O)[C@@H]1O (some centres unmarked) [glucose-6-phosphate]
coupled pyruvate kinase / lactate dehydrogenase ADP assay at 340 nm [3]: Different concentrations G6P displayed the net allosteric inhibition of rCsHK

Nc1ncnc2c1ncn2[C@@H]1O[C@H](COP(=O)(O)OP(=O)(O)O)[C@@H](O)[C@H]1O [ADP]
G6PD-coupled NADPH assay at 340 nm ([2]; 0-3 mM ADP, mixed allosteric effector, also product): ADP, which is a product of HK, exhibited an unusual mixed allosteric effect on CsHK

B1: rCsHK (recombinant Clonorchis sinensis hexokinase, CsHK) (Clonorchis sinensis) (protein)
chain: T1 sequence (G7YJ23 1-449)
notes: homotrimer about 164 kDa
K0.5 [4]: 0.459 ± 0.007 mM
